From patent US9585862B2, “Patch containing rivastigmine” (priority 2011, dated 2017)

Test: Compatibility test of adhesives mixed with rivastigmine free base (appearance, miscibility, total impurity)
Type: physicochemical
Description: In order to adopt a suitable adhesive for preparing a rivastigmine patch, each of various adhesives was mixed with rivastigmine free base to confirm the appearance, miscibility and compatibility thereof.
For a compatibility test, ten adhesives were used as a candidate material, considering the kind of a polymer and functional group present in the composition of each adhesive, the presence of a crosslinker and a solvent present in the composition. Details of the ten adhesives are shown in Table 2, wherein each product listed under the column “Product name” is an adhesive sold under the respective listed trademark.
Specifically, adhesives containing an acryl- or acrylate-vinylate-based polymer and having no functional group or a hydroxyl or carboxyl group were used. Also, the presence of a crosslinker in the adhesives was evaluated as an important factor to show a compatibility difference. The appearance and miscibility of each adhesive are shown in Table 3, wherein each “Durotak” listed under the column “Ingredient” is a different adhesive sold under the respective trademark.
For example, in the case that the adhesive sold under the trademark DUROTAK 87-202A was used, the color changed to yellow, while in the cases that the adhesives sold under the trademarks DUROTAK 87-2852, 87-2516 and 87-2052 were used, the color changed to brown. The adhesives undergoing a significant color change were commonly confirmed to have a crosslinker.

CCN(C)C(=O)Oc1cccc([C@H](C)N(C)C)c1 [Rivastigmine base, (S)-N-ethyl-3-[(1-dimethylamino)ethyl]-N-methyl-phenyl-carbamate]
Miscibility 2 wks (active ingredient with adhesive, 2 wks): ◯
Miscibility Initial (active ingredient with adhesive, initial): ◯
Total impurity (% impurity) 2 wks (rivastigmine base alone or mixed with adhesive, 2 wks): 0.07%
Total impurity (% impurity) Initial (rivastigmine base alone or mixed with adhesive, initial): 0.03%
